From patent US10213415B2, “Compounds as opioid receptor modulators” (JANSSEN PHARMACEUTICA NV, priority 2004, dated 2019)
Read-outs that look alike come from different tables or passages of the source.

Experiments:
male CD-1 mice [1] = experiment: In Vivo Assay: Stress-Induced Entire GI Tract Transit (MEGIT, MEGIT-NES, MEGIT-RS); parameters: species or system mouse; details: for MEGIT-RS entire GI transit 5 hr (% RS): dose 20 p.o., restraint stress; for MEGIT entire GI transit 6 hr % ctrl: acclimated mice
Description: Methods: The animals used in these studies are male CD-1 mice, ave. wt. ˜30 g. Procedure: Mice were housed in LAM under 12 h/12 h light/dark cycle, food & water ad lib. On the day before the experiments, the mice assigned to the “acclimated” (non-stressed) control group were placed into individual wire mesh-bottomed cages, provided food and water ad lib. The acclimated control group was in this new environment for 16-18 hrs prior to beginning the test. On the day of the experiment, mice assigned to experimental groups were housed in home cages were transported to procedure room and remain in their home cages until the start of the transit portion of the study. […] After the carmine marker was administered each mouse was placed in the novel environment cage. One hour after administration of carmine, the fecal pellet output of each animal was recorded. At one-hour intervals thereafter the fecal pellets were examined for the presence of carmine-dye. The number of mice that excreted a carmine-containing fecal pellet at the end of each hour post carmine administration was recorded, until all mice had excreted carmine in a fecal pellet or the end of 6 hrs post carmine administration, whichever occurred first. A variant of this novel environment stress (NES) paradigm is to use the same procedures of dye and compound administrations, but to use restraint (confinement in a small plastic tube for 3 hr) as a stressor (RS=restraint stress), followed by two hours in an individual cage (total of 5 hr fecal transit time). […] The mouse entire GI tract (MEGIT) transit test can thus be done in mice that are all acclimated (non-stressed), in which case the data are expressed as % control (vehicle only), or in mice that are exposed to NES or RS, in which cases the data are expressed as % of the vehicle treated NES or RS group.

male CD-1 mice [2] = experiment: In Vivo Assay: Upper GI Tract Transit (MUGIT); details: Mus musculus, po, 1 h, p.o., read-out: upper GI transit (% ctrl)
Description: Methods: The animals used in these studies were male CD-1 mice, ave. wt. ˜30 g. Mice were housed under 12 h/12 h light/dark cycle, food & water ad lib. On the day of the experiment mice were assigned to experimental groups, including one vehicle-only group (=control). At 30 min before administration of carmine dye, animals were dosed with vehicle or vehicle-plus-compound, mice were returned to their home cages after drug administration. After administration of carmine, the animals were either returned to their home cages (non-stressed) or individually placed in the same metal cages as used in the fecal output or entire GI tract transit to induce a novel environment stress. One hour after administration of carmine, mice were sacrificed by cervical dislocation, the abdomen opened midventrally, the small intestine from pylorus to cecum was removed, the mesentery divided in order to lay the intestine straight & flat—without stretching. The total length of intestine and the length of carmine-dyed intestine were measured in order to determine the percent of the upper GI tract over which transit had occurred as follows: {(Length of carmine-dyed intestine)/(Total length of intestine)}×100=% upper GI transit. The data expressed were group means±SD (or s.e.m.) and data expressed as % of control.

[3] = system: novel environment-stressed mice; experiment: In Vivo Assay-Stress-Induced Fecal Output (Fecal Output for 1 hr); parameters: species or system mouse; details: for response vs control in vivo at 30 mg/kg: Mus musculus, po, 1 h
Summary of the method: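 Adult male Crl:CD-1(ICR) mice (˜30-35 g; at least 10 per dose group) were split into acclimated non-stressed controls, held individually for 16-18 hr in wire-mesh-bottom cages, and non-acclimated stressed groups. Mice were dosed intragastrically with vehicle or test compound in 0.5% methylcellulose, housed individually in novel cages over absorbent cardboard, and fecal pellets per mouse were counted hourly.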

`COc1ccc(CN(C(=O)[C@@H](N)Cc2c(C)cc(C(N)=O)cc2C)[C@@H](C)c2nc(-c3ccc(I)cc3)c[nH]2)cc1C(=O)O` [Cpd 289] was tested, and the “MEGIT-RS entire GI transit 5 hr (% RS)” value (male CD-1 mice [1]) was 14.1 % RS and the response vs control in vivo at 30 mg (male CD-1 mice [2]) was 76.4%.

With `COc1ccc(CN(C(=O)[C@@H](N)Cc2c(C)cc(C(N)=O)cc2C)[C@@H](C)c2nc(-c3ccccc3)c[nH]2)cc1OC` [Cpd 75] the “MEGIT entire GI transit 6 hr % ctrl” value (male CD-1 mice [1]; dose 30 p.o.) was 125 % ctrl, the “MEGIT entire GI transit 6 hr % ctrl” value (male CD-1 mice [1]; dose 60 p.o.) was 0 % ctrl and the “MEGIT entire GI transit 6 hr % ctrl” value (male CD-1 mice [1]; dose 100 p.o.) was 0 % ctrl. For the same compound, the “Fecal pellet output, Compound (% control) 3.0” value ([3]; dose 3.0, oral, NES mice, vs acclimated control) was 223.8 % control, the “Fecal pellet output, Compound (% control) 10.0” value ([3]; dose 10.0, oral, NES mice, vs acclimated control) was 188.1 % control and the “Fecal pellet output, Compound (% control) 30.0” value ([3]; dose 30.0, oral, NES mice, vs acclimated control) was 100 % control. The response vs control in vivo at 30 mg (male CD-1 mice [2]) was 71.1%, the response vs control in vivo at 60 mg (male CD-1 mice [2]; dose 60 (mg)) was 56% and the response vs control in vivo at 100 mg (male CD-1 mice [2]) was 45.6%.

With `COc1ccc(CN(C(=O)[C@@H](N)Cc2c(C)cc(C(N)=O)cc2C)[C@@H](C)c2nc(-c3ccccc3)c[nH]2)cc1C(=O)O` [Cpd 18] the “MEGIT-NES Entire GI transit 6 hr (% NES)” value (male CD-1 mice [1]; dose 30 p.o., novel environment stress) was 80 % NES, the “Fecal Output (# pellets) cpd” value ([3]; 30 mg/kg oral, novel environment-stressed mice, 1 hr) was 3.1 pellets and the response vs control in vivo at 30 mg/kg ([3]; 30 mg/kg oral, relative to acclimated control, 1 hr, read-out: Fecal Output cpd % control) was 138%. For the same compound, the response vs control in vivo at 30 mg/kg ([3]; 30 mg/kg oral, relative to novel environment stress (NES) vehicle group, 1 hr, read-out: Fecal Output cpd % NES) was 82.7%, the response vs control in vivo at 5 mg (male CD-1 mice [2]; dose 5 (mg)) was 94.2% and the response vs control in vivo at 10 mg (male CD-1 mice [2]; dose 10 (mg)) was 99.6%. It also gave a response vs control in vivo at 25 mg (male CD-1 mice [2]; dose 25 (mg)) of 83%, a response vs control in vivo at 30 mg (male CD-1 mice [2]) of 37.5% and a response vs control in vivo at 50 mg (male CD-1 mice [2]; dose 50 (mg)) of 69.9%. It also gave a response vs control in vivo at 100 mg (male CD-1 mice [2]) of 41.2%.

In the case of `Cc1cc(C(N)=O)cc(C)c1C[C@H](N)C(=O)N(Cc1cccc(C(=O)O)c1)[C@@H](C)c1nc(-c2ccccc2)c[nH]1` [Cpd 227], the “MEGIT-RS entire GI transit 5 hr (% RS)” value (male CD-1 mice [1]) is reported as 100 % RS and the response vs control in vivo at 30 mg (male CD-1 mice [2]) is reported as 93.9%.

With `Cc1cc(C(N)=O)cc(C)c1C[C@H](N)C(=O)N(Cc1cccc(-c2nnn[nH]2)c1)[C@@H](C)c1nc(-c2ccccc2)c[nH]1` [Cpd 242] the “MEGIT-RS entire GI transit 5 hr (% RS)” value (male CD-1 mice [1]) was 100 % RS.

`COc1ccc(CN(C(=O)[C@@H](N)Cc2ccc(O)cc2)[C@@H](C)c2nc(-c3ccccc3)c[nH]2)cc1C(=O)O` [Cpd 261] was tested, and the “MEGIT-RS entire GI transit 5 hr (% RS)” value (male CD-1 mice [1]) was 103.6 % RS and the response vs control in vivo at 30 mg (male CD-1 mice [2]) was 87.7%.

In the case of `COc1ccc(CN(C(=O)[C@@H](N)Cc2ccc(C(N)=O)cc2)[C@@H](C)c2nc(-c3ccccc3)c[nH]2)cc1C(=O)O` [Cpd 4], the “MEGIT-RS entire GI transit 5 hr (% RS)” value (male CD-1 mice [1]) is reported as 100 % RS.
